Source: ChEMBL document CHEMBL1649495, “Sitafloxacin activity against Helicobacter pylori isolates, including those with gyrA mutations” (2009)
Values after ≈ are worked out from the molar mass of the structure shown.

Tests used:
Assay type in all cases: functional
[1] = test system: Helicobacter pylori; assay: Antibacterial activity against Helicobacter pylori clinical isolates harboring mutation in gyrA gene by agar dilution method
[2] = test system: Helicobacter pylori; assay: Antibacterial activity against Helicobacter pylori clinical isolates harboring gyrA gene by agar dilution method
[3] = test system: Helicobacter pylori; assay: Antibacterial activity against Helicobacter pylori clinical isolates harboring gyrA Asp91 mutant gene by agar dilution method
[4] = test system: Helicobacter pylori; assay: Antibacterial activity against Helicobacter pylori clinical isolates harboring gyrA Asn87 mutant gene by agar dilution method

Compound	MIC [1]	MIC50 [2]	MIC90 [2]	MIC50 [3]	MIC90 [3]	MIC50 [4]	MIC90 [4]
C[C@H]1NCc2cc(-c3ccc4c(=O)c(C(=O)O)cn(C5CC5)c4c3OC(F)F)ccc21 [GARENOXACIN]	≤ 0.015 µg/mL	0.03 µg/mL (≈ 0.0704 µM)	0.06 µg/mL (≈ 0.141 µM)	0.5 µg/mL (≈ 1.17 µM)	1 µg/mL (≈ 2.35 µM)	0.5 µg/mL (≈ 1.17 µM)	1 µg/mL (≈ 2.35 µM)
C[C@H]1COc2c(N3CCN(C)CC3)c(F)cc3c(=O)c(C(=O)O)cn1c23.C[C@H]1COc2c(N3CCN(C)CC3)c(F)cc3c(=O)c(C(=O)O)cn1c23.O [LEVOFLOXACIN]	0.12 µg/mL	0.25 µg/mL	0.25 µg/mL	4 µg/mL	8 µg/mL	8 µg/mL	16 µg/mL
N[C@@H]1CN(c2c(F)cc3c(=O)c(C(=O)O)cn([C@@H]4C[C@@H]4F)c3c2Cl)CC12CC2 [SITAFLOXACIN ANHYDROUS]	≤ 0.015 µg/mL	0.03 µg/mL (≈ 0.0732 µM)	0.03 µg/mL (≈ 0.0732 µM)	0.12 µg/mL (≈ 0.293 µM)	0.25 µg/mL (≈ 0.61 µM)	0.25 µg/mL (≈ 0.61 µM)	0.5 µg/mL (≈ 1.22 µM)
